# In US10512669B2, “Blockade of inflammatory proteases with cyclic peptides” (The Regents of the University of California, priority 2011, dated 2019):
# pIC50: −log10 of the molar value. Bridge positions count the residues as written; N and C are the ends. Peptide text beside a SMILES is read from it.
# Experiments:
# [1] = target: TACE expressed on THP-1 cells (Homo sapiens, UniProt P78536); details: read-out: IC50 TACE blockade on THP-1 cells; literature study (ref. 1); cited from earlier work
# Sequence of TACE expressed on THP-1 cells (P78536 215-824): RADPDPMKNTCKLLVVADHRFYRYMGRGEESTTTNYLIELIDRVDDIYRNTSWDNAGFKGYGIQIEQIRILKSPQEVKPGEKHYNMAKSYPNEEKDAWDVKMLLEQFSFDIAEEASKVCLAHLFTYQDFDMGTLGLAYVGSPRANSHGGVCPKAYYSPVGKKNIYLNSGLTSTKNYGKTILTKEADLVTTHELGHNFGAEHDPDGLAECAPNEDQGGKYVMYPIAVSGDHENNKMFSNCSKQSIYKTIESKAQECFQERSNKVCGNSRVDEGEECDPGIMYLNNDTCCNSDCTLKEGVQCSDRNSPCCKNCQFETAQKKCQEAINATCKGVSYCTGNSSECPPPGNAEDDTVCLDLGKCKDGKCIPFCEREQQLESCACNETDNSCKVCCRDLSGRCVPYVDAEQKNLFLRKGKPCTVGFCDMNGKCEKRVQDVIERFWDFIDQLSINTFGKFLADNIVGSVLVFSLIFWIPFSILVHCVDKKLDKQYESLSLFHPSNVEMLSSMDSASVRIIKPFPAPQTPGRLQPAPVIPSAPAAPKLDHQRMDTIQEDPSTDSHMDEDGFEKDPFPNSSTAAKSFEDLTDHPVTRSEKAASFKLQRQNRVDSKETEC
# in vitro = details: human, plasma
# chimpanzees = assay: escalating i.v. doses in adult chimpanzees: toxicity and immunogenicity; details: two adult chimpanzees
# [2] = 50 μg/ml in 50 mg/ml human serum albumin, 72 hours, room temperature
# [3] = target: recombinant TACE (rTACE, ADAM17) (Homo sapiens, UniProt P78536); assay: recombinant TACE fluorometric inhibition assay; type: biochemical
# Sequence of recombinant TACE (rTACE, ADAM17) (P78536 215-824): as above
compound,measurement,setting,value
CNC(=O)[C@H](Cc1c[nH]c2ccccc12)NC(=O)[C@@H](CC(=O)NO)CC(C)C [GM6001],pIC50,[1],5.26
"CC[C@H](C)[C@@H]1NC(=O)[C@@H]2CSSC[C@H](NC(=O)[C@H](CCCNC(=N)N)NC(=O)[C@@H]3CSSC[C@H](NC1=O)C(=O)N[C@@H]([C@@H](C)O)C(=O)N[C@@H](CCCNC(=N)N)C(=O)NCC(=O)N[C@@H](Cc1ccccc1)C(=O)N3)C(=O)N[C@@H](CC(C)C)C(=O)N[C@H]1CSSC[C@H](NC(=O)[C@H](C(C)C)NC(=O)CNC(=O)[C@H](CCCNC(=N)N)NC(=O)[C@H](CCCNC(=N)N)NC1=O)C(=O)N[C@@H](CCCNC(=N)N)C(=O)N2 [RTD-1] (cyclo(GFCRCLCRRGVCRCICTR); disulfide 3-16, 5-14, 7-12 (inferred); ring closure inferred)","remaining at 72 h, 50 μg/ml",in vitro,> 95%
same,antibody to RTD-1 (immunogenicity),chimpanzees,Neither animal produced an antibody
same,clinical chemistry and hematologic laboratory values,chimpanzees; following all injections,within normal limits
same,peptide unaltered,[2],more than 95%
HNP-2: human α-defensin from neutrophils (CYCRIPACIAGERRYGTCIYQGRLWAFCC),inhibition of rTACE,[3],"neither human α-defensin (HNP-2 (SEQ_ID NO. 31), HNP-4 (SEQ_ID NO. 33)) inhibited rTACE"
HNP-4: human α-defensin from neutrophils (VCSCRLVFCRRTELRVGNCLIGGVSFTYCCTRV),inhibition of rTACE,[3],"neither human α-defensin (HNP-2 (SEQ_ID NO. 31), HNP-4 (SEQ_ID NO. 33)) inhibited rTACE"
